Experimental data: ChEMBL document CHEMBL4507256 (2021); call rule not given here

Columns and labels:
[1] = biological target: Tyrosine-protein kinase Mer (Homo sapiens) (UniProt Q12866); details: Compound concentration 1000.0 nM
[2] = biological target: Receptor tyrosine-protein kinase erbB-4 (Homo sapiens) (UniProt Q15303); details: Compound concentration 1000.0 nM
[3] = biological target: Mitogen-activated protein kinase 3 (Homo sapiens) (UniProt P27361); details: Compound concentration 1000.0 nM
[4] = biological target: Dual specificity protein kinase CLK4 (Homo sapiens) (UniProt Q9HAZ1); details: Compound concentration 1000.0 nM
Dual specificity protein kinase CLK4 (Homo sapiens), sequence (Q9HAZ1 whole entry, looked up): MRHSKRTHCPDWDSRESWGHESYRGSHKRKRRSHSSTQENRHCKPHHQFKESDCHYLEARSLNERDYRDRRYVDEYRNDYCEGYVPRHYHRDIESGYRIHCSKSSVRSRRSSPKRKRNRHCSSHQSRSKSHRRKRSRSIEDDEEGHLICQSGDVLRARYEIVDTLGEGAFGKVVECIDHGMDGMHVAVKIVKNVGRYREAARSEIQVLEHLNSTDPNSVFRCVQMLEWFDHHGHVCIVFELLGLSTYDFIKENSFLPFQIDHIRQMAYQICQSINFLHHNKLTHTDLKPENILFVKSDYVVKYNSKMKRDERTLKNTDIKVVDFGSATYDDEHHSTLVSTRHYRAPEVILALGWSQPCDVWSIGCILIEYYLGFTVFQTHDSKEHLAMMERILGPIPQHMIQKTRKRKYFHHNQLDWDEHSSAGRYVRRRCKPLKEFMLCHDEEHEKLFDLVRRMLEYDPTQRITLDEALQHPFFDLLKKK

[5] = biological target: Serine/threonine-protein kinase 10 (Homo sapiens) (UniProt O94804); details: Compound concentration 1000.0 nM
Serine/threonine-protein kinase 10 (Homo sapiens), sequence (O94804 whole entry, looked up): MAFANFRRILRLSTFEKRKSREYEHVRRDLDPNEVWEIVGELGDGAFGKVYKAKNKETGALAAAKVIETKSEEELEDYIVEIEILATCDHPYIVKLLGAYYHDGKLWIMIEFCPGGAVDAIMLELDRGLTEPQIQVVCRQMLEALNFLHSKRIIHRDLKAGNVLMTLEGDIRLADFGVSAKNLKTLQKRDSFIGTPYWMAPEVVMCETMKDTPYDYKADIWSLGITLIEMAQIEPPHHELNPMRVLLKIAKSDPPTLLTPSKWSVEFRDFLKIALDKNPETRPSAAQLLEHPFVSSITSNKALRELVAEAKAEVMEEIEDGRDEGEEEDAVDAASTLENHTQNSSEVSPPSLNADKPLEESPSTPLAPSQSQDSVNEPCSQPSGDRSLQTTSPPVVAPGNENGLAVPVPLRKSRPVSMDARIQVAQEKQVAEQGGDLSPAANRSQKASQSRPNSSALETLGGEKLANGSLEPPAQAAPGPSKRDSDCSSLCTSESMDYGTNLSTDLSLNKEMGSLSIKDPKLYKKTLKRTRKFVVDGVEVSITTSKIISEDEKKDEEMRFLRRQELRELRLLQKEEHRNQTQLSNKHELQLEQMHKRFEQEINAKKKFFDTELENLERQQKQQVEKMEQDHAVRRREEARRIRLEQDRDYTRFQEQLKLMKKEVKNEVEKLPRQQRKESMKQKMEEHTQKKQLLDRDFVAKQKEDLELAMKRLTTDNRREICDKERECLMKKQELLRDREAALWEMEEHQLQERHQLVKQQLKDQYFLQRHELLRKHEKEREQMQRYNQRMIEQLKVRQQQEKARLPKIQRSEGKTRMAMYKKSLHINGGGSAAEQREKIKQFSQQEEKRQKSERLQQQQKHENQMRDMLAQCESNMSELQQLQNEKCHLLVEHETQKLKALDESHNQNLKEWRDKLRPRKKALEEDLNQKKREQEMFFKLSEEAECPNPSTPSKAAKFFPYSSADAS

[6] = biological target: RAC-gamma serine/threonine-protein kinase (Homo sapiens) (UniProt Q9Y243); details: Compound concentration 1000.0 nM
RAC-gamma serine/threonine-protein kinase (Homo sapiens), sequence (Q9Y243 whole entry): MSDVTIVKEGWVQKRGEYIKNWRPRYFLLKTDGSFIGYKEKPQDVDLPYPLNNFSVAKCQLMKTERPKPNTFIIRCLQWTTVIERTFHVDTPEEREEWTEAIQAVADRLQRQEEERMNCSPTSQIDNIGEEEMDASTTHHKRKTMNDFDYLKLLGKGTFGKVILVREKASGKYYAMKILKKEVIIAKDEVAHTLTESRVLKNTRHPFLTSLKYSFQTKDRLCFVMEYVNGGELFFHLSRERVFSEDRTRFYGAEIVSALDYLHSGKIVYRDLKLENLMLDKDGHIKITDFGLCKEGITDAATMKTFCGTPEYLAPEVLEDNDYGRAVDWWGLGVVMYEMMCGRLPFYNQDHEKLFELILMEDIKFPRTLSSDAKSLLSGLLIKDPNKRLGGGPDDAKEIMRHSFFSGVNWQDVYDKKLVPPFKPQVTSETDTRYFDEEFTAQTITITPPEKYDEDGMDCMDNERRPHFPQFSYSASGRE

[7] = biological target: Proto-oncogene tyrosine-protein kinase receptor Ret (Homo sapiens) (UniProt P07949); details: Compound concentration 1000.0 nM
Proto-oncogene tyrosine-protein kinase receptor Ret (Homo sapiens), sequence (P07949 whole entry): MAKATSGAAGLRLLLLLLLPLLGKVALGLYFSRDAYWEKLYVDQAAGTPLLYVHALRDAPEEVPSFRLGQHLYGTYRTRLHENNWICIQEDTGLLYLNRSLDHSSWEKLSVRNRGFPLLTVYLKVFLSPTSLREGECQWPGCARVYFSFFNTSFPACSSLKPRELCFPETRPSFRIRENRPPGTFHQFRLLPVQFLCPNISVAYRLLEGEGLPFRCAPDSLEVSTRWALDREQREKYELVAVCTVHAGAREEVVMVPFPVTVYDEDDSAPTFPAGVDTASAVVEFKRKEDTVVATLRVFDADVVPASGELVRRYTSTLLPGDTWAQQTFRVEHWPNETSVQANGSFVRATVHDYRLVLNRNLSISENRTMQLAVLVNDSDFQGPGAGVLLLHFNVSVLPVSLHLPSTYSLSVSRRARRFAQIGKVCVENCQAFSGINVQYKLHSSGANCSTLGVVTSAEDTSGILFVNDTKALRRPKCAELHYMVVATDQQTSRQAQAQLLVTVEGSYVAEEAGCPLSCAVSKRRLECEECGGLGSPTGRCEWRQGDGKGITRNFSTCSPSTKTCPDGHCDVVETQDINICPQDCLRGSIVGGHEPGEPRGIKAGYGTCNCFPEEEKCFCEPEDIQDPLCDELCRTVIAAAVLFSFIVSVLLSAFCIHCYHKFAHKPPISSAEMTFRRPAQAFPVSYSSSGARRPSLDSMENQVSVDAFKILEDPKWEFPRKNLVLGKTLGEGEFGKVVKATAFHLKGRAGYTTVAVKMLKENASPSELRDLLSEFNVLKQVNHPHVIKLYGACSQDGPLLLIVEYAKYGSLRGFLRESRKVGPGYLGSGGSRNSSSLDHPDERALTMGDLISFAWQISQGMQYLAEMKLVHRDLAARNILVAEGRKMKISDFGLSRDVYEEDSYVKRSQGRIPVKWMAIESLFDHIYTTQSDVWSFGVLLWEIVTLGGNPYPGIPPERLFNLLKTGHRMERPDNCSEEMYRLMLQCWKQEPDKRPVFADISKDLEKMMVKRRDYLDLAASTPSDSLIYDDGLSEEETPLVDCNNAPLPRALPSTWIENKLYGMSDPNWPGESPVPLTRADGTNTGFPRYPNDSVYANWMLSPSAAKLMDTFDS

[8] = biological target: Activated CDC42 kinase 1 (Homo sapiens) (UniProt Q07912); details: Compound concentration 1000.0 nM
[9] = biological target: Rho-associated protein kinase 2 (Homo sapiens) (UniProt O75116); details: Compound concentration 1000.0 nM
[10] = biological target: Ribosomal protein S6 kinase alpha-4 (Homo sapiens) (UniProt O75676); details: Compound concentration 1000.0 nM
[11] = biological target: Mitogen-activated protein kinase kinase kinase kinase 1 (Homo sapiens) (UniProt Q92918); details: Compound concentration 1000.0 nM
Mitogen-activated protein kinase kinase kinase kinase 1 (Homo sapiens), sequence (Q92918 whole entry, looked up): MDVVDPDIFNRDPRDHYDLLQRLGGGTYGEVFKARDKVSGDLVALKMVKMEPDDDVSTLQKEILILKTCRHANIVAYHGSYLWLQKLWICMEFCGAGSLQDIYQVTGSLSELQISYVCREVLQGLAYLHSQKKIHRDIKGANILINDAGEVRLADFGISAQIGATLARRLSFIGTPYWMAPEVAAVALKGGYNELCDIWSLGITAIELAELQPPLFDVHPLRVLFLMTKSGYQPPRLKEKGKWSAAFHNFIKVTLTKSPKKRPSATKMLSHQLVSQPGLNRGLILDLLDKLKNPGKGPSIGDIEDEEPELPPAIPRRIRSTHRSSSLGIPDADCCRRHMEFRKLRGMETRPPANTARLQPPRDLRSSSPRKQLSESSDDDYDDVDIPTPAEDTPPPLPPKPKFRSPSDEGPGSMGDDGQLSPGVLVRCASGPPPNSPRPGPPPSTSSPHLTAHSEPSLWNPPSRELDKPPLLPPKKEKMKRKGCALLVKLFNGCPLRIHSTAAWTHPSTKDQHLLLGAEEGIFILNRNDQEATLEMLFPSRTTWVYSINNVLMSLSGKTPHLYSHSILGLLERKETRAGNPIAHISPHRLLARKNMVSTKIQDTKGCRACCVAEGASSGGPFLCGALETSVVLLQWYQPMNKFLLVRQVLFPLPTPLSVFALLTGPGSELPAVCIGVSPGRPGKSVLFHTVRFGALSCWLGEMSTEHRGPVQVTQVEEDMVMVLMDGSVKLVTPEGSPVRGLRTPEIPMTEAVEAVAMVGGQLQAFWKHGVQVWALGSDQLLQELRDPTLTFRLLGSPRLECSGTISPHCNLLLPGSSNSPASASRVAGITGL

[12] = biological target: Transient receptor potential cation channel subfamily A member 1 (Homo sapiens, UniProt O75762); experiment: Fluorometric imaging plate reader (FLIPR)-based Ca2+ assay; set-up: compound concentration 0.03-0.3 uM
[13] = biological target: Receptor-interacting serine/threonine-protein kinase 4 (Homo sapiens) (UniProt P57078); details: Compound concentration 1000.0 nM
[14] = biological target: Dual specificity mitogen-activated protein kinase kinase 5 (Homo sapiens) (UniProt Q13163); details: Compound concentration 1000.0 nM
[15] = biological target: Receptor tyrosine-protein kinase erbB-2 (Homo sapiens) (UniProt P04626); details: Compound concentration 1000.0 nM
[16] = biological target: Translocator protein (Rattus norvegicus) (UniProt P16257); experiment: BZD-peripheral CEREP ligand profiling; details: Compound concentration 10.0 uM
Translocator protein (Rattus norvegicus), sequence (P16257 whole entry, looked up): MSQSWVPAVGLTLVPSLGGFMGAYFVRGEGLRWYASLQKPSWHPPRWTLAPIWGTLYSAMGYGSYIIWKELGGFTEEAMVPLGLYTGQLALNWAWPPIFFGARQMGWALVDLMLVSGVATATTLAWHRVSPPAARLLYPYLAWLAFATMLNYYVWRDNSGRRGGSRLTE

[17] = biological target: T1, GABA-A receptor; anion channel (Homo sapiens) (UniProt P14867+P47870+P18507+P28472+P48169+Q99928+Q9UN88+P34903+O00591+O14764+Q8N1C3+P18505+P78334+P47869+P31644+Q16445); experiment: BZD (central) CEREP ligand profiling; type: protein-complex assay; details: Compound concentration 10.0 uM
[18] = biological target: D(1A) dopamine receptor (Homo sapiens) (UniProt P21728); experiment: D1 (h) CEREP ligand profiling; details: Compound concentration 10.0 uM
[19] = biological target: Type-2 angiotensin II receptor (Homo sapiens) (UniProt P50052); experiment: AT2 (h) CEREP ligand profiling; details: Compound concentration 10.0 uM
[20] = biological target: T2, 5-hydroxytryptamine receptor 2C (Homo sapiens) (UniProt P28335); experiment: 5-HT2C (h) CEREP ligand profiling; details: Compound concentration 10.0 uM
T2 sequence (whole entry): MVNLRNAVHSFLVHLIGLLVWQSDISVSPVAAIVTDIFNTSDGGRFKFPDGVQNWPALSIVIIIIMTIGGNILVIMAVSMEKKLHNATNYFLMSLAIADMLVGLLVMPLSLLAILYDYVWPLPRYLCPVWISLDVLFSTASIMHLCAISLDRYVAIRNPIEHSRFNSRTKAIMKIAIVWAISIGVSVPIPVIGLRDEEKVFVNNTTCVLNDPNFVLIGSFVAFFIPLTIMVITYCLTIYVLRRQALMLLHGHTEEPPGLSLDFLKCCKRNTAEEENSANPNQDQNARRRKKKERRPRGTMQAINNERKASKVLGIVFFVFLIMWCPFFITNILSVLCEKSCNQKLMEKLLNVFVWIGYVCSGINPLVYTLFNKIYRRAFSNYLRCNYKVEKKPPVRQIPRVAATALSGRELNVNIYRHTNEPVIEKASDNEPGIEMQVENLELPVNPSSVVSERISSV

[21] = biological target: Neuropeptide Y receptor type 1 (Homo sapiens) (UniProt P25929); experiment: Y1 (h) CEREP ligand profiling; details: Compound concentration 10.0 uM
[22] = biological target: Neurotensin receptor type 1 (Homo sapiens) (UniProt P30989); experiment: NT1 (h) CEREP ligand profiling; details: Compound concentration 10.0 uM
[23] = biological target: Platelet-derived growth factor receptor (Homo sapiens) (UniProt P09619+P16234); experiment: PDGF CEREP ligand profiling; type: protein-complex assay; details: Compound concentration 10.0 uM
[24] = biological target: Adrenergic receptor alpha-2 (Homo sapiens) (UniProt P08913+P18825+P18089); experiment: alpha 2 CEREP ligand profiling; type: protein assay; details: Compound concentration 10.0 uM
[25] = biological target: Sodium-dependent noradrenaline transporter (Homo sapiens) (UniProt P23975); experiment: NE transporter CEREP ligand profiling; details: Compound concentration 10.0 uM
[26] = biological target: 5-hydroxytryptamine receptor 5A (Homo sapiens) (UniProt P47898); experiment: 5-HT5A (h) CEREP ligand profiling; details: Compound concentration 10.0 uM
[27] = biological target: Calcium-activated potassium channel (Homo sapiens) (UniProt Q92952+Q9UGI6+Q12791+O15554+Q9H2S1+A8MYU2); experiment: SK+ channel CEREP ligand profiling; type: protein assay; details: Compound concentration 10.0 uM
[28] = biological target: Beta-1 adrenergic receptor (Homo sapiens) (UniProt P08588); experiment: beta1 (h) CEREP ligand profiling; details: Compound concentration 10.0 uM
[29] = biological target: Kappa-type opioid receptor (Cavia porcellus) (UniProt P41144); experiment: kappa (guinea pig) CEREP ligand profiling; details: Compound concentration 10.0 uM
[30] = biological target: Endothelin-1 receptor (Homo sapiens) (UniProt P25101); experiment: ETA (h) CEREP ligand profiling; details: Compound concentration 10.0 uM
[31] = biological target: Histamine H2 receptor (Homo sapiens) (UniProt P25021); details: Compound concentration 10.0 uM
[32] = biological target: T1, GABA-A receptor; anion channel (Homo sapiens); experiment: Cl- channel CEREP ligand profiling; type: protein-complex assay; details: Compound concentration 10.0 uM
[33] = biological target: Vasoactive intestinal polypeptide receptor 1 (Homo sapiens) (UniProt P32241); experiment: VIP1 (h) CEREP ligand profiling; details: Compound concentration 10.0 uM
[34] = biological target: Neuropeptide Y receptor type 2 (Homo sapiens) (UniProt P49146); experiment: Y2 (h) CEREP ligand profiling; details: Compound concentration 10.0 uM
[35] = biological target: D(3) dopamine receptor (Homo sapiens) (UniProt P35462); experiment: D3 (h) CEREP ligand profiling; details: Compound concentration 10.0 uM
[36] = biological target: P2Y receptor (Homo sapiens) (UniProt Q9H244+P51582+P47900+P41231+Q15391+Q15077+Q96G91+Q9BPV8); experiment: P2Y CEREP ligand profiling; type: protein assay; details: Compound concentration 10.0 uM
[37] = biological target: Vasopressin V1a receptor (Homo sapiens) (UniProt P37288); experiment: V1a (h) CEREP ligand profiling; details: Compound concentration 10.0 uM

Tyrosine-protein kinase Mer (Homo sapiens), sequence (Q12866 whole entry): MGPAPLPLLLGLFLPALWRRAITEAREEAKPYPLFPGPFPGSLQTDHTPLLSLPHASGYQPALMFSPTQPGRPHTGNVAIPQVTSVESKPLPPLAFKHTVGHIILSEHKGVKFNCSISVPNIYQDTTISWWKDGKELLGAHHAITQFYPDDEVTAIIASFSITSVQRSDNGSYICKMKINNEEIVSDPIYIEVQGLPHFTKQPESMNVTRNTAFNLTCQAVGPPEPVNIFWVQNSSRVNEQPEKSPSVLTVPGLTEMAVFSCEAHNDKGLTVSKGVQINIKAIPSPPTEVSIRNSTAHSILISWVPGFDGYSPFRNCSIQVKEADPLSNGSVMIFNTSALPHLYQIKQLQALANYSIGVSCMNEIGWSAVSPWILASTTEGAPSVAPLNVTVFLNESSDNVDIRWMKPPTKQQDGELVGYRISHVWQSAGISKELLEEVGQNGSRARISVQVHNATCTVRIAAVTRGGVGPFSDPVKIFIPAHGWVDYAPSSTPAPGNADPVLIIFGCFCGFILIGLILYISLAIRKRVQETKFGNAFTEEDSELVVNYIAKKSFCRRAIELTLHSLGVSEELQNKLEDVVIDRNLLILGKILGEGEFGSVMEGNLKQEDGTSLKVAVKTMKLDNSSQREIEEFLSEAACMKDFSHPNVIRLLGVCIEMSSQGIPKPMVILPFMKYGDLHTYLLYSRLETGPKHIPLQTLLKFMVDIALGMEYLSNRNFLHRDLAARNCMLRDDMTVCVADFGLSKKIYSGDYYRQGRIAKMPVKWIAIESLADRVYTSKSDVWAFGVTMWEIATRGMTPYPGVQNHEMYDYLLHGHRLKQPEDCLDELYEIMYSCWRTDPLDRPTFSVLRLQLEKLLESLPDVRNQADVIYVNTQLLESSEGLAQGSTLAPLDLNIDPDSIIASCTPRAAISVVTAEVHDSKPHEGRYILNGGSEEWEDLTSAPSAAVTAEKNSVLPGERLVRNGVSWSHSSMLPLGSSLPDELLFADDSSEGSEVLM

In the case of `CCC(=N\O)/C(C)=C/c1ccc(F)c(C)c1` [A-226], the residual activity [1] is reported as 100%, the residual activity [2] is reported as 98% and the residual activity [3] is reported as 100%. It also gave a residual activity [4] of 97%, a residual activity [5] of 73% and a residual activity [6] of 89%. It also gave a residual activity [7] of 100%, a residual activity [8] of 100% and a residual activity [9] of 100%. For the same compound, the residual activity [10] was 91%, the residual activity [11] was 100% and the IC50 [12] was > 100 µM (not active). The residual activity [13] was 100%, the residual activity [14] was 86% and the residual activity [15] was 91%.
In the case of `CCC(=N\O)/C(C)=C/c1ccc(F)cc1` [A-079], the residual activity [1] is reported as 100%, the residual activity [2] is reported as 66% and the inhibition [16] is reported as 6%. The inhibition [17] was 1%, the residual activity [3] was 69% and the inhibition [18] was 6%. It also gave an inhibition [19] of -9%, a residual activity [4] of 100% and a residual activity [5] of 76%. It also gave an inhibition [20] of 6%, an inhibition [21] of 0% and an inhibition [22] of -5%. The residual activity [6] was 83%, the residual activity [7] was 100% and the inhibition [23] was -6%. For the same compound, the residual activity [8] was 85%, the inhibition [24] was -1% and the inhibition [25] was 32%. The inhibition [26] was 4%, the residual activity [10] was 81% and the inhibition [27] was -5%. The residual activity [11] was 92%, the inhibition [28] was -2% and the inhibition [29] was -4%. For the same compound, the inhibition [30] was 5%, the inhibition [31] was 0.46% and the residual activity [13] was 83%. It also gave an inhibition [32] of 26%, an inhibition [33] of 0% and an inhibition [34] of 13%. It also gave an inhibition [35] of 14%, a residual activity [15] of 83% and an inhibition [36] of 7%. It also gave an inhibition [37] of -3%.
